According to paper PMC12123366, “Effect of urea and squaramide IMPDH inhibitors on C. parvum: in vitro trial design impacts the assessment of drug efficacy” (International Journal for Parasitology: Drugs and Drug …, 2025):
Values belong to the molecule of their own block, whether it stands above or below them.

How the values were obtained:
[1] = test system: C. parvum; set-up: method as in Funkhouser-Jones et al., 2020; conditions: ref Funkhouser-Jones et al., 2020; cited from earlier work
[2] = CytoTox 96 Non-Radioactive Cytotoxicity Assay; assay type: cell-based, Human; conditions: human; HCT-8 cells, 10 µM
Procedure: (§1) HCT-8 cell lines (Human ileocecal adenocarcinoma) were purchased from The European Collection of Authenticated Cell Cultures (ECACC) under catalogue number No 90032006) and maintained with regular subculturing in a growth medium consisting in a RPMI 1640 medium supplemented with 1 mM sodium pyruvate, 2 mM l-glutamine, 10 % (vol/vol) of heat-inactivated fetal calf serum, 100 U/mL of penicillin and 100 μg/mL of streptomycin. Cells were grown in an incubator at 37 °C with 5 % (vol/vol) CO2 until monolayers reached 80–90 % confluency. Cells were cultivated in 96-well format plate for molecular analysis and in Lab-Tek™ Chamber Slides for microscopic analysis. 50,000 cells were seeded and incubated during 24 h (until confluency) before infection.
(§2) The compounds (2 mg/mL in DMSO) were diluted to 500 μM and serially diluted in maintenance medium. The cytotoxicity of the compounds was assessed using the CytoTox 96® Non-Radioactive Cytotoxicity Assay (Promega, G1790) in accordance with the manufacturer's protocol.
(§3) An initial screening experiment was conducted on the full library to evaluate the cytotoxicity effects on HCT-8 cells. Nitrophenylurea 12 was identified as being cytotoxic so was not progressed further (See Supporting Information). In total, 21 candidates were assessed for their ability to inhibit C. parvum replication at a concentration of 10 μM. Each compound was added at the start of the infection of HCT-8 cells (T0) and remained in the culture for 48 h post infection (hpi). Parasitic quantification was then performed using a molecular method (qPCR). Of the 21 compounds tested, nine were effective inhibitors, reducing parasite proliferation by 80 % or more (Fig. 6). A clear trend emerged with all of the benzyl-substituted ureas 6–10 displaying poor inhibitory activity, regardless of the attached heteroaryl substituent. […] Two exceptions to this were imidazole-containing analogues 18 and 19. […] Among the squaramide series, the results were highly dependent on the nature of the substituent, ranging from high (e.g. ketone 29, furan 32), medium (e.g. 3-pyrazole 30) to low (e.g. 4-pyrazole 31) anti-cryptosporidial activity.

[3] = test system: HCT-8 cells; assay: CytoTox 96 Non-Radioactive Cytotoxicity Assay; assay type: cell-based, Human
Procedure: as §1, §2, §3

[4] = test system: C. parvum; assay: Inhibition of C. parvum replication in infected HCT-8 cells, parasite quantification by qPCR; assay type: cell-based, Cryptosporidium parvum (Iowa strain) in human HCT-8 cells; conditions: qPCR
Procedure: as §1
(§4) C. parvum oocysts of “Iowa” strain was purchased from Waterborne Inc. and stored in PBS at 4 °C. A ratio of one oocyst per cell was used to infect HCT-8 cell. Oocysts suspension was incubated with 10 % of a solution (vol/vol) containing 0.5 % sodium hypochlorite for 10 min at 4 °C. After a washing step by centrifugation at 1800g for 15 min at 4 °C, oocysts were incubated in acidified water (pH 2.4) containing 0.025 % (wt/vol) of trypsin, at 37 °C for 20 min, to trigger excystation (infectivity assay developed by [Keegan et al., 2003]). After a third centrifugation step at 1800 g for 10 min, oocysts were suspended in a maintenance medium. The maintenance medium consisted of RPMI 1640 medium with 2 mM l-glutamine, 5 mM glucose, 0.5 μM folic acid, 7 μM 4-amino-benzoic acid, 0.1 μM calcium pantothenate, 50 nM ascorbic acid, 2 % (vol/vol) heat inactivated fetal calf serum and 100 U/mL of streptomycin/penicillin. Before oocyst inoculation, the growth medium was switched with maintenance medium. Triggered oocysts were finally added on monolayers and incubated during 48 h at 37 °C in a 5 % (vol/vol) CO2 atmosphere.
as §2
The COWP gene (GenBank no. AF248743) was amplified by qPCR following the previously described protocol ([Guy et al., 2003]), and the parasitic concentration was determined using the standard range of C. parvum oocyst concentrations. Briefly, serial dilutions from a pure C. parvum oocyst suspension were made starting from a stock solution of 5 × 10^7 oocysts (4 × 10^5 – 2 × 10^5 – 1 × 10^5 – […]–2.5 × 10^3–1.25 × 10^3 oocysts) and the standard curve for quantifying parasites was created to obtain a correlation between Cq values and the Log of concentration.
At the end of the experiment, supernatants from the C. parvum-infected cell cultures were collected. The cell layers were then washed (1x PBS), detached using trypsin (0.25 %), and centrifuged (10,000×g, 10 min). The resulting cell pellet was re-suspended in 150–200 μL of sterile 1x PBS and stored at −20 °C for later DNA extraction. DNA extraction of C. parvum was performed using the Purelink™ Microbiome Purification Kit (Invitrogen™) following the manufacturer's protocol “Transport Media and Microbial Culture Samples” ([Invitrogen, 2015]).
FRePCR reactions were formulated to a volume of 25 μL and comprised of 1.25 μL of primers (10 μM), 0.05 μL probe (100 μM), 12.5 μL Master Mix 2X, LightCycler 480 Probes Master (ref. 04707494001, Roche), 4.95 μL H2O nuclease-free and 5 μL of DNA template. Quantitative PCR was run on a CFX96 real time PCR system (BioRad) with an initial step of activation (10 min 95 °C) following by 40 cycles with cycling conditions as follows: 95 °C for 10 s, 60 °C for 1 min. BioRad CFX manager software was used to analyse the data. Samples were considered negative if Cq ≥ 40.
A common way of defining a 50 % response is to use a mathematical model like the 4-parameter logistic model (4 PL) ([Sebaugh, 2011]). […]

[5] = test system: C. parvum; assay: Quantification of C. parvum development in HCT-8 cells by immunofluorescence microscopy; assay type: cell-based, Cryptosporidium parvum (Iowa strain) in human HCT-8 cells; conditions: for reduction in parasite quantification: 7.5 μM
Procedure: as §1, §4
After aspiration of the supernatant from the Nunc™ Lab-Tek™ Chamber slide wells, cells were rinsed with PBS 1X. A fixation step was then performed using methanol during 8 min at 4 °C. Cryptosporidium developmental forms were labelled with a polyclonal IgG antibodies reaction kit tagged with Cy3 (Sporo-Glo™, Waterborne Inc.) and oocysts were labelled with FL-Crypt-a-Glo™, a fluorescein-labelled mouse monoclonal antibody made to oocyst outer wall antigenic sites (epitopes) of C. parvum. Antibodies were 1/20th diluted and incubated on cells for 1 h at room temperature. DNA was labelled with Hoechst for 5 min at room temperature. Slides were then coverslipped with a no fading mounting medium (Waterborne Inc.) and observed with a Leica DMi8 microscope. Each dilution was performed in triplicate and, for each well, ten images were taken at 400× magnification. Parasite quantification was carried out automatically using the StarDist neural network, which was specifically trained to detect and quantify C. parvum parasites.
To confirm our initial findings, we employed an alternative method using immunofluorescence microscopy to quantify C. parvum development in the presence of inhibitors (Fig. S1). […] The results corroborated our initial screening data, confirming the high efficacy of all tested chloronitrophenyl urea analogues, except for imidazole derivatives 18 and 19.
To test this hypothesis, increasing concentrations of squaramide 32 (i.e. 0, 2, 4 and 8 μM) were applied at different infection times: at 0 hpi (hours post infection), to assess the impact on parasite invasion; at 4 hpi, to examine the effect on the early stages of intracellular development; and at 30 hpi, to evaluate the influence on late stage intracellular development. The microscopic images in Fig. 7 illustrate the effect of 32 when applied at the onset of infection and at 30 hpi. Using fluorescent antibodies, the intracellular development of C. parvum is highlighted by green fluorescence, which allows for quantification of the number of parasites per image.

[6] = test system: Cryptosporidium; conditions: cited from earlier work

SMILES: COc1ccc(NC(=O)N2CCCCN3[C@H](CN(C)C)[C@H](c4ccc(C#Cc5ccccc5)cc4)[C@@H]3C2)cc1 [BRD7929]
stage-specific effect on C. parvum development (in words) [1]: blocks nuclear division and arrest development at the trophozoite

SMILES: CC(C)(NC(=O)Nc1ccc(Cl)c([N+](=O)[O-])c1)c1cccc(-c2cccc([N+](=O)[O-])c2)c1 [Compound 12, 1-(4-chloro-3-nitrophenyl)-3-(2-(3′-nitro-[1,1′-biphenyl]-3-yl)propan-2-yl)urea]
viability at 10 µM [2]: 58% | cytotoxicity (in words) ([3]; initial screening): cytotoxic

IC50 ([4]; compounds at 0, 3, 6 and 9 μM added at t0 and left until 48 hpi, read-out: IC50): 2200 nM
SMILES: CC(C)(Nc1c(Nc2ccc(Cl)c([N+](=O)[O-])c2)c(=O)c1=O)c1cccc(-c2ccco2)c1 [Compound 32, (2-((4-Chloro-3-nitrophenyl)amino)-3-((2-(3-(furan-2-yl)phenyl)propan-2-yl)amino)-4-oxocyclobut-2-en-1-ylidene)oxonium]
Viability ([3]; 10 µM): 94.94% | anti-cryptosporidial activity (in words) ([4]; 10 μM, added at T0, 48 hpi): high | inhibition rate of C. parvum replication ([4]; 10 μM, added at start of infection (T0), 48 hpi, mean ± SD (n = 3 wells)): 87.2 ± 0.8% | effect on intracellular development (green fluorescence) ([5]; 2 μM, applied at onset of infection (0 hpi)): significantly reduces green fluorescence | effect on distribution of parasite area ([5]; 7.5 μM or 15 μM, added at 30 hpi until 48 hpi): decreases the prevalence of both small and large parasites | reduction in parasite quantification ([5]; added at 0 hpi, fluorescence microscopy): > 80% | reduction in parasite quantification ([5]; added at 30 hpi, until 48 hpi, fluorescence microscopy): 46% | reduction of parasite load ([5]; 8 μM, added at 30 hpi, 18 h of treatment, fluorescence microscopy): < 50%

SMILES: CNC(=O)c1ccc(-c2cnc3cnc(C(=O)N(C)c4ccc(Cl)cc4)cn23)cc1 [KDU691]
stage-specific effect on C. parvum development (in words) [1]: effective at later stages

SMILES: CC(=O)Oc1ccccc1C(=O)Nc1ncc([N+](=O)[O-])s1 [nitazoxanide]
efficacy in immunocompromised patients (in words) ([6]; even when administered in high doses, ref Rossignol et al., 1998): ineffective | efficacy in children (in words) ([6]; ref Amadi et al., 2002): limited
